What was measured:
Format in all cases: in vivo
[1] = tested on: Diabrotica balteata (Corn Root Worm); test: Example B1: Diabrotica balteata (corn root worm), sprayed maize sprouts on agar, L2 larvae; conditions: 96 h, application rate of 200 ppm, 4 days after infestation, in comparison to untreated samples, read-out: effect in at least one of the two categories (mortality or growth inhibition)
Experimental: Example B1: Diabrotica balteata (Corn Root Worm
Maize sprouts placed onto an agar layer in 24-well microtiter plates were treated with aqueous test solutions prepared from 10′000 ppm DMSO stock solutions by spraying. After drying, the plates were infested with L2 larvae (6 to 10 per well). The samples were assessed for mortality and growth inhibition in comparison to untreated samples 4 days after infestation.

[2] = tested on: Euschistus heros (Neotropical Brown Stink Bug); test: Example B2: Euschistus heros (neotropical brown stink bug), sprayed soybean leaves, N2 nymphs; conditions: 120 h, application rate of 200 ppm, 5 days after infestation, in comparison to untreated samples, read-out: effect in at least one of the two categories (mortality or growth inhibition)
Experimental: Example B2: Euschistus heros (Neotropical Brown Stink Bug
Soybean leaves on agar in 24-well microtiter plates were sprayed with aqueous test solutions prepared from 10′000 ppm DMSO stock solutions. After drying the leaves were infested with N2 nymphs. The samples were assessed for mortality and growth inhibition in comparison to untreated samples 5 days after infestation.

[3] = tested on: Frankliniella occidentalis (Western Flower Thrips); test: Example B3: Frankliniella occidentalis (western flower thrips), sprayed sunflower leaf discs; conditions: foliar, 168 h, application rate of 200 ppm, population of mixed ages, 7 days after infestation
Experimental: Example B3: Frankliniella occidentalis (Western Flower Thrips
Sunflower leaf discs were placed on agar in 24-well microtiter plates and sprayed with aqueous test solutions prepared from […] stock solutions. After drying the leaf discs were infested with a Frankliniella population of mixed ages. The samples were assessed for mortality 7 days after infestation.

[4] = tested on: Plutella xylostella (Diamond Back Moth); test: Example B4: Plutella xylostella (diamond back moth), treated artificial diet, eggs; conditions: 192 h, application rate of 200 ppm, 8 days after infestation, in comparison to untreated samples, read-out: effect in at least one of the two categories (mortality or growth inhibition)
Experimental: Example B4: Plutella xylostella (Diamond Back Moth
24-well microtiter plates with artificial diet were treated with aqueous test solutions prepared from 10′000 ppm DMSO stock solutions by pipetting. After drying, Plutella eggs were pipetted through a plastic stencil onto a gel blotting paper and the plate was closed with it. The samples were assessed for mortality and growth inhibition in comparison to untreated samples 8 days after infestation.

[5] = tested on: Myzus persicae (Green Peach Aphid); test: Example B5: Myzus persicae (green peach aphid), feeding/contact activity, sprayed sunflower leaf discs; conditions: foliar, 144 h, application rate of 200 ppm, aphid population of mixed ages, 6 days after infestation
Experimental: Example B5: Myzus persicae (Green Peach Aphid). Feeding/Contact Activity
Sunflower leaf discs were placed onto agar in a 24-well microtiter plate and sprayed with aqueous test solutions prepared from 10′000 ppm DMSO stock solutions. After drying, the leaf discs were infested with an aphid population of mixed ages. The samples were assessed for mortality 6 days after infestation.

[6] = tested on: Bemisia tabaci (Cotton White Fly); test: Example B6: Bemisia tabaci (cotton white fly), feeding/contact activity, sprayed cotton leaf discs; conditions: foliar, 144 h, application rate of 200 ppm, adult white flies, 6 days after incubation
Experimental: Example B6: Bemisia tabaci (Cotton White Fly). Feeding/Contact Activity
Cotton leaf discs were placed on agar in 24-well microtiter plates and sprayed with aqueous test solutions prepared from 10′000 ppm DMSO stock solutions. After drying the leaf discs were infested with adult white flies. The samples were checked for mortality 6 days after incubation.

[7] = tested on: Spodoptera littoralis (Egyptian Cotton Leaf Worm); test: Example B7: Spodoptera littoralis (Egyptian cotton leaf worm), sprayed cotton leaf discs, L1 larvae; conditions: foliar, 72 h, application rate of 200 ppm, 3 days after infestation, in comparison to untreated samples
Method in brief: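 Cotton leaf discs on agar were sprayed with aqueous test solutions made from 10′000 ppm DMSO stocks, dried, and infested with five L1 larvae. Mortality, anti-feeding and growth inhibition were scored against untreated samples 3 days after infestation; control means any category exceeds the untreated sample.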

[8] = tested on: Myzus persicae (Green Peach Aphid); test: Example B8: Myzus persicae (green peach aphid), systemic activity, pea seedling roots in test solution; conditions: 144 h, test rate of 24 ppm, aphid population of mixed ages, 6 days after placing seedlings into test solutions
Experimental: Example B8: Myzus persicae (Green Peach Aphid). Systemic Activity
Roots of pea seedlings infested with an aphid population of mixed ages were placed directly into aqueous test solutions prepared from 10′000 DMSO stock solutions. The samples were assessed for mortality 6 days after placing seedlings into test solutions.

[9] = tested on: Chilo suppressalis (Striped Rice Stemborer); test: Example B9: Chilo suppressalis (striped rice stemborer), treated artificial diet, L2 larvae; conditions: 144 h, application rate of 200 ppm, 6 days after infestation, in comparison to untreated samples, read-out: control (mortality, anti-feeding effect, or growth inhibition)
Experimental: Example B9: Chilo suppressalis (Striped Rice Stemborer
24-well microtiter plates with artificial diet were treated with aqueous test solutions prepared from 10′000 ppm DMSO stock solutions by pipetting. After drying, the plates were infested with L2 larvae (6-8 per well). The samples were assessed for mortality, anti-feeding effect, and growth inhibition in comparison to untreated samples 6 days after infestation. Control of Chilo suppressalis by a test sample is given when at least one of the categories mortality, anti-feedant effect, and growth inhibition is higher than the untreated sample.

CCS(=O)(=O)c1cc(N=S(C)(C)=O)cnc1-c1nc2cc(S(=N)(=O)C(F)(F)F)ccc2o1 (stereo not shown) [P1, [2-[5-[[dimethyl(oxo)-λ^6-sulfanylidene]amino]-3-ethylsulfonyl-2-pyridyl]-1,3-benzoxazol-5-yl]-imino-oxo-(trifluoromethyl)-λ^6-sulfane]
≥ 80%: percent effect (mortality or growth inhibition) at 200 ppm [1] | effect (mortality or growth inhibition) at 200 ppm [2] | mortality at 200 ppm [3] | percent effect (mortality or growth inhibition) at 200 ppm [4] | mortality at 200 ppm [5] | mortality at 200 ppm [6] | percent control (mortality, anti-feeding effect or growth inhibition) at 200 ppm [7]

CCS(=O)(=O)c1cccnc1-c1nc2cc(S(=O)(=NC(C)=O)C(F)(F)F)ccc2o1 (stereo not shown) [P17, N-[[2-(3-ethylsulfonyl-2-pyridyl)-1,3-benzoxazol-5-yl]-oxo-(trifluoromethyl)-λ^6-sulfanylidene]acetamide]
≥ 80%: percent effect (mortality or growth inhibition) at 200 ppm [1] | effect (mortality or growth inhibition) at 200 ppm [2] | percent effect (mortality or growth inhibition) at 200 ppm [4] | mortality at 200 ppm [5] | mortality at 200 ppm [6] | percent control (mortality, anti-feeding effect or growth inhibition) at 200 ppm [7]

CCN=S(=O)(c1cnc2c(c1)nc(-c1ncc(C3(C#N)CC3)cc1S(=O)(=O)CC)n2C)C(F)(F)F (stereo not drawn) [P20, 1-[5-ethylsulfonyl-6-[6-[N-ethyl-S-(trifluoromethyl)sulfonimidoyl]-3-methyl-imidazo[4,5-b]pyridin-2-yl]-3-pyridyl]cyclopropanecarbonitrile]
≥ 80%: percent effect (mortality or growth inhibition) at 200 ppm [1] | effect (mortality or growth inhibition) at 200 ppm [2] | mortality at 200 ppm [3] | percent effect (mortality or growth inhibition) at 200 ppm [4] | mortality at 200 ppm [5] | percent control (mortality, anti-feeding effect or growth inhibition) at 200 ppm [7] | mortality at 24 ppm [8]

CCS(=O)(=O)c1cc(C2(C#N)CC2)cnc1-c1nc2cc(S(=N)(=O)C(F)(F)F)cnc2n1C (stereo not shown) [P21, 1-[5-ethylsulfonyl-6-[3-methyl-6-(trifluoromethylsulfonimidoyl)imidazo[4,5-b]pyridin-2-yl]-3-pyridyl]cyclopropanecarbonitrile]
≥ 80%: percent effect (mortality or growth inhibition) at 200 ppm [1] | effect (mortality or growth inhibition) at 200 ppm [2] | mortality at 200 ppm [3] | percent effect (mortality or growth inhibition) at 200 ppm [4] | mortality at 200 ppm [5] | percent control (mortality, anti-feeding effect or growth inhibition) at 200 ppm [7] | mortality at 24 ppm [8]

CCN=S(=O)(c1ccc2c(c1)nc(-c1ncc(C3(C#N)CC3)cc1S(=O)(=O)CC)n2C)C(F)(F)F (stereo not drawn) [P32, 1-[5-ethylsulfonyl-6-[5-[N-ethyl-S-(trifluoromethyl)sulfonimidoyl]-1-methyl-benzimidazol-2-yl]-3-pyridyl]cyclopropanecarbonitrile]
≥ 80%: percent effect (mortality or growth inhibition) at 200 ppm [1] | effect (mortality or growth inhibition) at 200 ppm [2] | percent effect (mortality or growth inhibition) at 200 ppm [4] | percent control (mortality, anti-feeding effect or growth inhibition) at 200 ppm [7] | mortality at 24 ppm [8]

CCS(=O)(=O)c1cc(C2(C#N)CC2)cnc1-c1nc2cc(S(=N)(=O)C(F)(F)F)ccc2n1C (stereo not shown) [P33, 1-[5-ethylsulfonyl-6-[1-methyl-5-(trifluoromethylsulfonimidoyl)benzimidazol-2-yl]-3-pyridyl]cyclopropanecarbonitrile]
≥ 80%: percent effect (mortality or growth inhibition) at 200 ppm [1] | effect (mortality or growth inhibition) at 200 ppm [2] | percent effect (mortality or growth inhibition) at 200 ppm [4] | mortality at 200 ppm [6] | percent control (mortality, anti-feeding effect or growth inhibition) at 200 ppm [7]

CCS(=O)(=O)c1cc(C2(C#N)CC2)cnc1-c1nc2cc(S(=O)(=NCC(F)(F)F)C(F)(F)F)ccc2n1C (stereo not drawn) [P34, 1-[5-ethylsulfonyl-6-[1-methyl-5-[N-(2,2,2-trifluoroethyl)-S-(trifluoromethyl)sulfonimidoyl]benzimidazol-2-yl]-3-pyridyl]cyclopropanecarbonitrile]
≥ 80%: percent effect (mortality or growth inhibition) at 200 ppm [1] | effect (mortality or growth inhibition) at 200 ppm [2] | percent effect (mortality or growth inhibition) at 200 ppm [4] | mortality at 200 ppm [6] | percent control (mortality, anti-feeding effect or growth inhibition) at 200 ppm [7]

CCS(=O)(=O)c1cc(C2(C#N)CC2)cnc1-c1nc2cc(S(=O)(=NCC(F)(F)F)C(F)(F)F)cnc2n1C (stereo not drawn) [P57, 1-[5-ethylsulfonyl-6-[3-methyl-6-[N-(2,2,2-trifluoroethyl)-S-(trifluoromethyl)sulfonimidoyl]imidazo[4,5-b]pyridin-2-yl]-3-pyridyl]cyclopropanecarbonitrile]
≥ 80%: percent effect (mortality or growth inhibition) at 200 ppm [1] | mortality at 200 ppm [3] | percent effect (mortality or growth inhibition) at 200 ppm [4] | mortality at 200 ppm [5] | mortality at 200 ppm [6] | percent control (mortality, anti-feeding effect or growth inhibition) at 200 ppm [7] | percent control (mortality, anti-feedant effect or growth inhibition) at 200 ppm [9]

CCS(=O)(=O)c1cc(C2(C#N)CC2)cnc1-c1nc2cc(S(=O)(=NC3CC3)C(F)(F)F)cnc2n1C (stereo not drawn) [P58, 1-[6-[6-[N-cyclopropyl-S-(trifluoromethyl)sulfonimidoyl]-3-methyl-imidazo[4,5-b]pyridin-2-yl]-5-ethylsulfonyl-3-pyridyl]cyclopropanecarbonitrile]
≥ 80%: percent effect (mortality or growth inhibition) at 200 ppm [1] | effect (mortality or growth inhibition) at 200 ppm [2] | percent effect (mortality or growth inhibition) at 200 ppm [4] | mortality at 200 ppm [6] | percent control (mortality, anti-feeding effect or growth inhibition) at 200 ppm [7] | percent control (mortality, anti-feedant effect or growth inhibition) at 200 ppm [9]
